From patent US8624040B2, “Substituted hydroxamic acids and uses thereof” (Millennium Pharmaceuticals, Inc., priority 2009, dated 2014)
pIC50: −log10 of the molar value.

Target: T1, purified human HDAC6 (Homo sapiens, UniProt Q9UBN7)
T1 construct: purchased BPS Bioscience 5006
T1 sequence (Q9UBN7 1-1215): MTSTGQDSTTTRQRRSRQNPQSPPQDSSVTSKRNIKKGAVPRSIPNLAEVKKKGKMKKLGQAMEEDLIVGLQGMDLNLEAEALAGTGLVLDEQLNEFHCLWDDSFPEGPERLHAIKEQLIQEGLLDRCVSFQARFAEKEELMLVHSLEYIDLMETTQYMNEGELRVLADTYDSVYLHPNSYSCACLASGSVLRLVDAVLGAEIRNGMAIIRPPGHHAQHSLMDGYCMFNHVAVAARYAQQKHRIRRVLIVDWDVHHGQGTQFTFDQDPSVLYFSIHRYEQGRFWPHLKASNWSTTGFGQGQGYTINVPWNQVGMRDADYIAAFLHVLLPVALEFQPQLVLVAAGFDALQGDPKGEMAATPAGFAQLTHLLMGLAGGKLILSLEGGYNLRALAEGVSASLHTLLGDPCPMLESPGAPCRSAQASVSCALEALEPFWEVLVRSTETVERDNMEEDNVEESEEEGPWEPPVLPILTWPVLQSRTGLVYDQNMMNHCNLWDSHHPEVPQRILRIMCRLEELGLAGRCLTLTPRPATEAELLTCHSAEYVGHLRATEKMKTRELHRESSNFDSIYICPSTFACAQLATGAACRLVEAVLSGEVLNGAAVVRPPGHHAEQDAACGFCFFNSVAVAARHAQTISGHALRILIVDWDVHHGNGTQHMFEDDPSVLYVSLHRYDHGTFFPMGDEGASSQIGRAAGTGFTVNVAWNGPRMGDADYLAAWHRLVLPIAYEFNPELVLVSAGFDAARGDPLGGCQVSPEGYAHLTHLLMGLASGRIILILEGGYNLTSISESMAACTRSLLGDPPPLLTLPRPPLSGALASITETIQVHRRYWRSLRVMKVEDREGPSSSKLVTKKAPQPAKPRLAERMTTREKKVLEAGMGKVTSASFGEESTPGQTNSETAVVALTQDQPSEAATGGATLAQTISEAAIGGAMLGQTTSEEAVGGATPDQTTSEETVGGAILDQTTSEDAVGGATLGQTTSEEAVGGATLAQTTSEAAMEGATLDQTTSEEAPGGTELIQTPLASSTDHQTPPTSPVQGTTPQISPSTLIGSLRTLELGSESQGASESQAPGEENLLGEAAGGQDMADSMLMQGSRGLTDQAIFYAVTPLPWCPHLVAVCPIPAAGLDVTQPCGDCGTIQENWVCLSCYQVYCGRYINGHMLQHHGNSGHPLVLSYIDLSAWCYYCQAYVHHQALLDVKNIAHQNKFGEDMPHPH
Test: HDAC6 Enzyme Assay
Format: biochemical
Details: enzyme inhibition, substrate Ac-Arg-Gly-Lys(Ac)-AMC, 1 hour at 30° C.
Summary of the method: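 Purified human HDAC6 incubated 1 h at 30 °C with Ac-Arg-Gly-Lys(Ac)-AMC peptide and compound; reaction stopped with trichostatin A, then trypsin releases AMC, read by fluorescence (Ex 340/Em 460 nm). IC50 from concentration-response curves relative to DMSO controls.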

| pIC50 | SMILES |
| --- | --- |
| > 7.30 | Cc1c(C(=O)NO)sc2c1CN(C(=O)c1ccc(Cl)cc1)CC2 [Compound 193, 5-(4-chlorobenzoyl)-N-hydroxy-3-methyl-4,5,6,7-tetrahydrothieno[3,2-c]pyridine-2-carboxamide] |
| > 7.30 | Cc1c(C(=O)NO)sc2c1CN(C(=O)c1cccn1C)CC2 [Compound 194, N-hydroxy-3-methyl-5-[(1-methyl-1H-pyrrol-2-yl)carbonyl]-4,5,6,7-tetrahydrothieno[3,2-c]pyridine-2-carboxamide] |
| < 6.00 | CC1(C)CN(C(=O)c2cc3ccccc3s2)Cc2cc(C(=O)NO)sc21 [Compound 195, 5-(1-benzothien-2-ylcarbonyl)-N-hydroxy-7,7-dimethyl-4,5,6,7-tetrahydrothieno[3,2-c]pyridine-2-carboxamide] |
| < 6.00 | CC1(C)CN(C(=O)Nc2ccc(C#N)cc2)Cc2cc(C(=O)NO)sc21 [Compound 196, N^5-(4-cyanophenyl)-N2-hydroxy-7,7-dimethyl-6,7-dihydrothieno[3,2-c]pyridine-2,5(4H)-dicarboxamide] |
| < 6.00 | CC1(C)CN(C(=O)c2ccc3c(c2)OCCCO3)Cc2cc(C(=O)NO)sc21 [Compound 198, 5-(3,4-dihydro-2H-1,5-benzodioxepin-7-ylcarbonyl)-N-hydroxy-7,7-dimethyl-4,5,6,7-tetrahydrothieno[3,2-c]pyridine-2-carboxamide] |
| 7.00 to 7.30 | Cc1nc(-c2ccccn2)sc1C(=O)N1CCc2sc(C(=O)NO)c(C)c2C1 [Compound 199, N-hydroxy-3-methyl-5-[(4-methyl-2-pyridin-2-yl-1,3-thiazol-5-yl)carbonyl]-4,5,6,7-tetrahydrothieno[3,2-c]pyridine-2-carboxamide] |
| > 7.30 | Cc1c(C(=O)NO)sc2c1CN(C(=O)c1cc3ccccc3s1)CC2 [Compound 205, 5-(1-benzothien-2-ylcarbonyl)-N-hydroxy-3-methyl-4,5,6,7-tetrahydrothieno[3,2-c]pyridine-2-carboxamide] |
| > 7.30 | COc1ccc(C(=O)N2CCc3sc(C(=O)NO)c(C)c3C2)cc1 [Compound 209, N-hydroxy-5-(4-methoxybenzoyl)-3-methyl-4,5,6,7-tetrahydrothieno[3,2-c]pyridine-2-carboxamide] |
| < 6.00 | Cn1cccc1C(=O)N1Cc2cc(C(=O)NO)sc2C(C)(C)C1 [Compound 210, N-hydroxy-7,7-dimethyl-5-[(1-methyl-1H-pyrrol-2-yl)carbonyl]-4,5,6,7-tetrahydrothieno[3,2-c]pyridine-2-carboxamide] |
| > 7.30 | CC(C)(C)OC(=O)N1CCc2sc(C(=O)NO)cc2C1 [Compound 212, tert-butyl 2-[(hydroxyamino)carbonyl]-6,7-dihydrothieno[3,2-c]pyridine-5(4H)-carboxylate] |
| < 6.00 | COc1ccc(C(=O)N2Cc3cc(C(=O)NO)sc3C(C)(C)C2)cc1 [Compound 214, N-hydroxy-5-(4-methoxybenzoyl)-7,7-dimethyl-4,5,6,7-tetrahydrothieno[3,2-c]pyridine-2-carboxamide] |
| 7.00 to 7.30 | Cc1c(C(=O)NO)sc2c1CN(C(=O)c1cc3ccccc3o1)CC2 [Compound 216, 5-(1-benzofuran-2-ylcarbonyl)-N-hydroxy-3-methyl-4,5,6,7-tetrahydrothieno[3,2-c]pyridine-2-carboxamide] |
| < 6.00 | CC1(C)CN(C(=O)c2ccc(Cl)cc2)Cc2cc(C(=O)NO)sc21 [Compound 218, 5-(4-chlorobenzoyl)-N-hydroxy-7,7-dimethyl-4,5,6,7-tetrahydrothieno[3,2-c]pyridine-2-carboxamide] |
| < 6.00 | CC1(C)CN(C(=O)c2ccccn2)Cc2cc(C(=O)NO)sc21 [Compound 220, N-hydroxy-7,7-dimethyl-5-(pyridin-2-ylcarbonyl)-4,5,6,7-tetrahydrothieno[3,2-c]pyridine-2-carboxamide] |
| 7.00 to 7.30 | Cc1c(C(=O)NO)sc2c1CN(C(=O)c1sc3ccccc3c1Cl)CC2 [Compound 221, 5-[(3-chloro-1-benzothien-2-yl)carbonyl]-N-hydroxy-3-methyl-4,5,6,7-tetrahydrothieno[3,2-c]pyridine-2-carboxamide] |
| < 6.00 | Cc1nc(C(=O)N2Cc3cc(C(=O)NO)sc3C(C)(C)C2)cs1 [Compound 222, N-hydroxy-7,7-dimethyl-5-[(2-methyl-1,3-thiazol-4-yl)carbonyl]-4,5,6,7-tetrahydrothieno[3,2-c]pyridine-2-carboxamide] |
| < 6.00 | CC1(C(=O)N2Cc3cc(C(=O)NO)sc3C(C)(C)C2)CCCCC1 [Compound 224, N-hydroxy-7,7-dimethyl-5-[(1-methylcyclohexyl)carbonyl]-4,5,6,7-tetrahydrothieno[3,2-c]pyridine-2-carboxamide] |
| 7.00 to 7.30 | Cc1c(C(=O)NO)sc2c1CN(C(=O)c1ccc(C(C)(C)C)cc1)CC2 [Compound 225, 5-(4-tert-butylbenzoyl)-N-hydroxy-3-methyl-4,5,6,7-tetrahydrothieno[3,2-c]pyridine-2-carboxamide] |
| 7.00 to 7.30 | O=C(NO)c1cc2c(s1)CN(C(=O)C13CC4CC(CC(C4)C1)C3)C2 [Compound 230, 5-(1-adamantylcarbonyl)-N-hydroxy-5,6-dihydro-4H-thieno[2,3-c]pyrrole-2-carboxamide] |
| > 7.30 | O=C(NO)c1cc2c(s1)CN(C(=O)c1cc3ccccc3s1)C2 [Compound 231, 5-(1-benzothien-2-ylcarbonyl)-N-hydroxy-5,6-dihydro-4H-thieno[2,3-c]pyrrole-2-carboxamide] |
| > 7.30 | Cc1c(C(=O)NO)sc2c1CN(C(=O)c1ccc(-c3ccccc3)cc1)CC2 [Compound 233, 5-(biphenyl-4-ylcarbonyl)-N-hydroxy-3-methyl-4,5,6,7-tetrahydrothieno[3,2-c]pyridine-2-carboxamide] |
| < 6.00 | CC1(C)CN(C(=O)c2ccccc2Cl)Cc2cc(C(=O)NO)sc21 [Compound 234, 5-(2-chlorobenzoyl)-N-hydroxy-7,7-dimethyl-4,5,6,7-tetrahydrothieno[3,2-c]pyridine-2-carboxamide] |
